Assay results reported in patent US11583529B2, “Treatment of inflammatory disorders” (Aldeyra Therapeutics, Inc., priority 2017, dated 2023).

How the values were obtained:
[1] = tested on: rat model of endotoxin induced uveitis; experiment: Rat model of endotoxin-induced uveitis (EIU), topical or intravitreal treatment; type: in vivo, female Lewis rats
Description: An in vivo study was conducted to assess the efficacy of intravitreal administration of compound I-22 in a rat model of endotoxin induced uveitis, one of the most appropriate models for the study of NIU (Smith et al., 1998) (Toxikon Study 16-04078-N1). Ocular inflammation was induced in female Lewis rats (n=10/group) by a single foot pad injection of LPS (100 μL) (Herbort et al., 1988, Graefe's Arch Clin Exp Ophthalmol. 226:553-558). Compound I-22 (5 mg/mL) was administered intravitreally into each eye (25 μg/eye), or topically to both eyes at 1, 3, 7, 10, and 17 hours post-LPS injection, within one hour of LPS administration. Balanced salt solution (BSS) served as a vehicle control. Retinal exams were performed prior to study start and six and 24 hours following LPS administration and scored using a Combined Draize and McDonald Shadduck scoring system, based on assessments of: retinal vasculopathy and retinal hemorrhage, exudate, and detachment.
Endotoxin-induced uveitis was created by a single injection of lipopolysaccharide (LPS; 100 μL) into one hind footpad. Ten (10) female Lewis rats per group received control (balanced salt solution, BSS) or test article (compound I-22) topically to both eyes at 1, 3, 7, 10, and 17 hours post-LPS injection. At each dosing time point, two drops (5 μL each, separated by approximately two minutes, for a total of 10 μL/eye/dose) were instilled into each eye of the animals. Ten female Lewis rats per group received control (BSS) or compound I-22 by a single intravitreal injection (IVT) in each eye at one hour post-LPS injection. Each eye received 5 μL of vehicle or test article.
Animals were anesthetized with isoflurane 1-3.5% for ophthalmic examinations. Both eyes of each animal were evaluated pre-dose using slit-lamp biomicroscopy, and an indirect ophthalmoscope or a surgical microscope, according to the Combined Draize and McDonald-Shadduck Scoring System, and the Ocular Posterior Segment Scoring Scale. All pupils were dilated with 1% tropicamide ophthalmic solution before ocular examination. Only rats showing no signs of eye irritation, ocular defects or preexisting corneal injury were used in the study.
Ophthalmic examinations were performed on both eyes of each animal approximately six and 24 hours following LPS administration, using slit-lamp biomicroscopy and a surgical microscope or via indirect ophthalmoscopy. Pupils were dilated with 1% Tropicamide Ophthalmic Solution before ophthalmic examinations.
Quantitative, continuous data from this study were analyzed using one-way ANOVA. Alternative or additional statistical methods were used as necessary.
In the same study, the efficacy of compound 1-5 was compared to that of compound 1-22. Compound 1-5 was topically administered topically to the eye at hours 1, 3, 7, 10, and 17, after LPS induction, or by a single intravitreal (IVT) injection one hour after LPS induction (n=10 per group), as was compound I-22. Ocular exams were performed 6 and 24 hours after LPS injection. Anterior segments were scored using a combined Draize and McDonald-Shadduck scoring system, and posterior segments were scored using 0 to 1 (vitreous, optic disc, retinal vasculature) and 0 to 4 (retinal and choroidal hemorrhage, exudation, and detachment) scales. Statistical significance from vehicle control was determined by ANOVA, followed by Tukey's post hoc test.

[2] = tested on: Dry Eye Disease (DED); experiment: Phase 2b clinical study of I-5 Ophthalmic Solution (0.25% and 0.1%) vs vehicle in subjects with dry eye disease; type: in vivo, human; conditions: for Reason for Study Withdrawal: Adverse Events / Study Completion: Discontinued: N = 100
Source text: Objectives: • To evaluate the efficacy of I-5 Ophthalmic Solutions (0.25% and 0.1%) on baseline to weeks 2, 4, 8, and 12 change scores for sign and symptom endpoints of dry eye disease. • To evaluate effect sizes for efficacy endpoints of I-5 Ophthalmic Solutions (0.25% and 0.1%) vs vehicle for the treatment of the signs and symptoms of dry eye disease to confirm the endpoint selection and sample size for Phase 3 studies. • To evaluate the safety and tolerability of I-5 Ophthalmic Solutions (0.25% and 0.1%) to vehicle for the treatment of the signs and symptoms of dry eye disease.
Treatment: During the 12-week (84±3 days) treatment period, I-5 Ophthalmic Solution at concentrations of 0.1%, 0.25%, or vehicle ophthalmic solution was administered QID by bilateral topical ocular dosing. Subjects were randomized to one of three treatment groups (1:1:1) to receive study drug after the Post-CAE® assessments at Visit 2.
Summary of Visit Schedule: Six visits over the course of approximately 14 weeks • Visit 1=Day −14±2, CAE® Screening • Visit 2=Day 1, CAE® Confirmation/Baseline • Visit 3=Day 15±2, 2-Week Follow-Up • Visit 4=Day 29±2, 4-Week Follow-Up • Visit 5=Day 57±3, 8-Week Follow-Up • Visit 6=Day 85±3, 12-Week CAE® Follow-Up & Study Exit
Note: a subject could not have an Ocular Discomfort score of 4 at time=0); • 12 Had at least one eye, the same eye, satisfy all criteria for 6, 7, 8, 9, 10, and 11 above.
Safety Measures: • Visual acuity • Slit-lamp evaluation • Adverse event query • Intraocular Pressure (IOP) • Dilated fundoscopy
Efficacy Analysis • Evaluated baseline to weeks 2, 4, 8 and 12 change scores with I-5 on DED sign and symptom endpoints (both pre-CAE and CAE endpoints). Each endpoint was analyzed at a two-sided alpha level of 0.05, and the overall type I error was not controlled for in this investigative study. • Evaluated effect size of baseline to weeks 2, 4, 8 and 12 change scores of I-5 vs vehicle on DED sign and symptom endpoints (both pre-CAE and CAE endpoints) to confirm the endpoint selection for primary outcome parameters and sample size for Phase 3 studies with I-5. • Sub-group analyses on effect size of baseline to weeks 2, 4, 8 and 12 change scores of I-5 vs vehicle on DED sign and symptom endpoints (both pre-CAE and CAE endpoints) [Subgroups were prospectively detailed in the Statistical Analysis Plan (SAP)].

[3] = tested on: dextran sulfate sodium (DSS)-induced acute ulcerative colitis (UC); experiment: 7-Day DSS-induced acute ulcerative colitis model; type: in vivo, female Swiss Webster mice; conditions: vs PO vehicle
[4] = intravitreal administration, vs vehicles
[5] = 0.25% group, majority (>50-100%) of effect vs vehicle at first study endpoint (Week 2 or 4)
[6] = 200 mg/kg PO BID, Days −3 through 6

## CC(C)(O)c1nc2ccc(Cl)cc2cc1N [Compound I-5]
[1]; IVT, vs vehicle
  ocular exam scores: significantly improved
[1]; [4]
  Total ocular inflammation: lower
  anterior chamber inflammation: lower
  retina-choroid inflammation: lower
[1]; overall
  signs of inflammation in the rat EIU model: reduced
[1]; overall, I-22 compared with I-5
  response in the EIU model: positive response
[1]; topical (TO), 6 hours and 24 hours, vs vehicle
  ocular exam scores: significantly improved
[1]; topical (TO), vs vehicle
  Total ocular inflammation score: lower
  anterior chamber inflammation score: lower
  retina-choroid inflammation score: lower
[2]; 0.1% QID
  Reason for Study Withdrawal: Adverse Events: 2 (2.0%)
  Study Completion: Discontinued: 3 (3.0%)
[2]; 0.1%, clearest with signs, especially ocular staining
  effects at later time points: Matched Higher Dose Effects at Later Time Points
[2]; 0.25% QID
  Reason for Study Withdrawal: Adverse Events: 10 (10.0%)
  Study Completion: Discontinued: 12 (12.0%)
[2]; [5]
  early onset of effect, sign endpoints (Lissamine green total score, fluorescein total score, tear osmolarity positive; TFBUT negative): Positive early onset for 3 out of 4 sign endpoints
  early onset of effect, symptom endpoints (ODS, OD4SQ, OSDI positive; SANDE negative): Positive early onset for 3 out of 4 symptom endpoints
[2]; ITT, observed data only
  Fluorescein Staining: Central (0-4); Dose Trend?: ✓
  Fluorescein Staining: Central (0-4); Drug Trend?: ✓
  Fluorescein Staining: Conjunctival Sum Score (Nasal and Temporal) (0-8; Σ 2×); Dose Trend?: ✓
  Fluorescein Staining: Conjunctival Sum Score (Nasal and Temporal) (0-8; Σ 2×); Drug Trend?: ✓
  Fluorescein Staining: Corneal Sum Score (Inferior, Superior, and Central) (0-12; Σ 3×); Drug Trend?: ✓
  Fluorescein Staining: Inferior (0-4); Drug Trend?: ✓
  Fluorescein Staining: Nasal (0-4); Dose Trend?: ✓
  Fluorescein Staining: Nasal (0-4); Drug Trend?: ✓
  Fluorescein Staining: Temporal (0-4); Dose Trend?: ✓
  Fluorescein Staining: Temporal (0-4); Drug Trend?: ✓
  Fluorescein Staining: Total Score (all five regions) (0-20; Σ 5×); Drug Trend?: ✓
  OD & 4-Symptom Questionnaire: Burning (0-5); Drug Trend?: ✓
  OD & 4-Symptom Questionnaire: Dryness (0-5); Dose Trend?: ✓
  OD & 4-Symptom Questionnaire: Dryness (0-5); Drug Trend?: ✓
  OD & 4-Symptom Questionnaire: Grittiness (0-5); Dose Trend?: ✓
  OD & 4-Symptom Questionnaire: Grittiness (0-5); Drug Trend?: ✓
  OD & 4-Symptom Questionnaire: Overall Ocular Discomfort (0-5); Dose Trend?: ✓
  OD & 4-Symptom Questionnaire: Overall Ocular Discomfort (0-5); Drug Trend?: ✓
  OD & 4-Symptom Questionnaire: Stinging (0-5); Dose Trend?: ✓
  OD & 4-Symptom Questionnaire: Stinging (0-5); Drug Trend?: ✓
  Ocular Discomfort Scale (0-4); Dose Trend?: ✓
  Ocular Discomfort Scale (0-4); Drug Trend?: ✓
  Ocular Surface Disease Index (OSDI) (0-100); Dose Trend?: ✓
  Ocular Surface Disease Index (OSDI) (0-100); Drug Trend?: ✓
  Osmolarity (mOsm/L); Drug Trend?: ✓
  SANDE Questionnaire Frequency (0-100 mm); Drug Trend?: ✓
  SANDE Questionnaire Severity (0-100 mm); Dose Trend?: ✓
  SANDE Questionnaire Severity (0-100 mm); Drug Trend?: ✓
  Schirmer’s Test (mm); Dose Trend?: ✓
  Schirmer’s Test (mm); Drug Trend?: ✓
  Tear Film Break-up Time (sec); Dose Trend?: ✓
  Usamine Green Staining: Central (0-4); Dose Trend?: ✓
  Usamine Green Staining: Central (0-4); Drug Trend?: ✓
  Usamine Green Staining: Conjunctival Sum Score (Nasal and Temporal) (0-8; Σ 2×); Dose Trend?: ✓
  Usamine Green Staining: Conjunctival Sum Score (Nasal and Temporal) (0-8; Σ 2×); Drug Trend?: ✓
  Usamine Green Staining: Corneal Sum Score (Inferior, Superior, and Central) (0-12; Σ 3×); Dose Trend?: ✓
  Usamine Green Staining: Corneal Sum Score (Inferior, Superior, and Central) (0-12; Σ 3×); Drug Trend?: ✓
  Usamine Green Staining: Inferior (0-4); Dose Trend?: ✓
  Usamine Green Staining: Inferior (0-4); Drug Trend?: ✓
  Usamine Green Staining: Nasal (0-4); Dose Trend?: ✓
  Usamine Green Staining: Nasal (0-4); Drug Trend?: ✓
  Usamine Green Staining: Superior (0-4); Dose Trend?: ✓
  Usamine Green Staining: Temporal (0-4); Dose Trend?: ✓
  Usamine Green Staining: Temporal (0-4); Drug Trend?: ✓
  Usamine Green Staining: Total Score (all five regions) (0-20; Σ 5×); Dose Trend?: ✓
  Usamine Green Staining: Total Score (all five regions) (0-20; Σ 5×); Drug Trend?: ✓
[2]; between 0.1% and 0.25% dose strengths
  Dose Response: Demonstrated
[3]; 200 mg/kg PO BID (Groups 5, 6, 7, 8, 9, and 10)
  Body weights: did not differ significantly
[3]; [6]
  proximal colon edema, reduction: 63%
  proximal colon erosion, reduction: 73%
